Laboratory results: patent US12544395B2, “Combination compositions comprising a beta-lactamase inhibitor and uses thereof” (priority 2018, dated 2026)

Key:
Type in all cases: cell-based
E. coli 1924 = assay: Broth microdilution MIC (strain enzymes: TEM-12)
E. coli 2150 = assay: Broth microdilution MIC (strain enzymes: SHV-3, TEM-1)
E. coli BAS 1 = assay: Broth microdilution MIC (strain enzymes: none detected)
E. coli ESBL 5 = assay: Broth microdilution MIC (strain enzymes: CTX-M15, TEM-1)
E. coli SI-LP377 = assay: microbe, parasite or virus in culture
E. coli SI-M004 = assay: Broth microdilution MIC (strain enzymes: SHV-2, GES-12)
E. coli SI-NO36 = assay: Broth microdilution MIC (strain enzymes: SHV-11, TEM-1)
E. coli SI-PBLII = assay: Broth microdilution MIC (strain enzymes: CTX-M2, TEM-1)
E. coli SI-V502 = assay: Broth microdilution MIC (strain enzymes: TEM-29, CTX-M15)
K. oxytoca 176877 = assay: Broth microdilution MIC (strain enzymes: SHV-105)
K. oxytoca 496 #2 = assay: Broth microdilution MIC (strain enzymes: SHV-105, TEM-1)
K. pneumoniae 3151 = assay: Broth microdilution MIC (strain enzymes: SHV-12, TEM-1)
K. pneumoniae 153239 = assay: Broth microdilution MIC (strain enzymes: SHV-11, TEM-1)
K. pneumoniae 170375 = assay: Broth microdilution MIC (strain enzymes: SHV-12, CTX-M15 and TEM-1)
K. pneumoniae 304487 = assay: Broth microdilution MIC (strain enzymes: SHV-12,TEM-1)
K. pneumoniae 319478 = assay: Broth microdilution MIC (strain enzymes: SHV-12, CTX-M3 and TEM-1)
K. pneumoniae 329633 = assay: Broth microdilution MIC (strain enzymes: SHV-5, TEM-1)
K. pneumoniae 11/23 LF#2 = assay: microbe, parasite or virus in culture
K. pneumoniae ESBL 10 = assay: Broth microdilution MIC (strain enzymes: SHV-12, TEM-1)
K. pneumoniae ESBL 8 #1 = assay: Broth microdilution MIC (strain enzymes: TEM-1, SHV-12)
K. pneumoniae KP 4 = assay: Broth microdilution MIC (strain enzymes: SHV-2a, SHV-5, TEM-1)
K. pneumoniae KPN 508 = assay: Broth microdilution MIC (strain enzymes: SHV-7, TEM-1)

Nc1nc(/C(=C/CC(=O)O)C(=O)N[C@@H]2C(=O)N3C(C(=O)O)=CCS[C@H]23)cs1 [Ceftibuten, ceftibuten, reference compound]
8 µg/mL: MIC (K. oxytoca 496 #2; Klebsiella oxytoca, alone, read-out: MIC of ceftibuten (CTB)) | MIC (K. pneumoniae 304487; Klebsiella pneumoniae, 304487, alone, read-out: MIC of ceftibuten (CTB))
16 µg/mL: MIC (K. pneumoniae 329633; Klebsiella pneumoniae, 329633, alone, read-out: MIC of ceftibuten (CTB)) | MIC (K. pneumoniae ESBL 10; Klebsiella pneumoniae, ESBL10, alone, read-out: MIC of ceftibuten (CTB)) | MIC (K. pneumoniae ESBL 8 #1; Klebsiella pneumoniae, alone, read-out: MIC of ceftibuten (CTB))
2 µg/mL: MIC (K. pneumoniae 11/23 LF#2; Klebsiella pneumoniae, read-out: MIC of ceftibuten (CTB))
0.25 µg/mL: MIC (K. pneumoniae 153239; Klebsiella pneumoniae, 153239, alone, read-out: MIC of ceftibuten (CTB))
32 µg/mL: MIC (E. coli SI-M004; Escherichia coli, SIM004, alone, read-out: MIC of ceftibuten (CTB)) | MIC (K. pneumoniae 170375; Klebsiella pneumoniae, 170375, alone, read-out: MIC of ceftibuten (CTB)) | MIC (K. pneumoniae KP 4; Klebsiella pneumoniae, KP4, alone, read-out: MIC of ceftibuten (CTB)) | MIC (K. pneumoniae KPN 508; Klebsiella pneumoniae, KPN508, alone, read-out: MIC of ceftibuten (CTB))
0.5 µg/mL: MIC (E. coli 1924; Escherichia coli, 1924, alone, read-out: MIC of ceftibuten (CTB)) | MIC (E. coli 2150; Escherichia coli, 2150, alone, read-out: MIC of ceftibuten (CTB)) | MIC (E. coli SI-NO36; Escherichia coli, SINO36, alone, read-out: MIC of ceftibuten (CTB)) | MIC (E. coli SI-PBLII; Escherichia coli, alone, read-out: MIC of ceftibuten (CTB)) | MIC (E. coli SI-V502; Escherichia coli, SIV502, alone, read-out: MIC of ceftibuten (CTB))
4 µg/mL: MIC (E. coli SI-LP377; Escherichia coli, SILP377, read-out: MIC of ceftibuten (CTB)) | MIC (K. oxytoca 176877; Klebsiella oxytoca, 176877, alone, read-out: MIC of ceftibuten (CTB))
> 32 µg/mL: MIC (E. coli BAS 1; Escherichia coli, BAS1, alone, read-out: MIC of ceftibuten (CTB)) | MIC (E. coli ESBL 5; Escherichia coli, ESBL5, alone, read-out: MIC of ceftibuten (CTB)) | MIC (K. pneumoniae 3151; Klebsiella pneumoniae, 3151, alone, read-out: MIC of ceftibuten (CTB)) | MIC (K. pneumoniae 319478; Klebsiella pneumoniae, 319478, alone, read-out: MIC of ceftibuten (CTB))

O=C(O)[C@H]1/C(=C/CO)O[C@@H]2CC(=O)N21 [Clavulanic acid, clavulanic acid, reference compound]
>32 µg/mL: MIC of cefixime (CFM) (E. coli BAS 1; with inhibitor at 4 μg/mL) | MIC of ceftibuten (CTB) (E. coli BAS 1; with inhibitor at 4 μg/mL)
2 µg/mL: MIC of cefalexin (LEX) (K. oxytoca 176877; with inhibitor at 4 μg/mL) | MIC of cefdinir (CDR) (K. oxytoca 176877; with inhibitor at 4 μg/mL) | MIC of cefixime (CFM) (K. pneumoniae 11/23 LF#2; with inhibitor at 4 μg/mL) | MIC of ceftibuten (CTB) (K. pneumoniae KP 4; with inhibitor at 4 μg/mL)
0.25 µg/mL: MIC of cefalexin (LEX) (E. coli SI-NO36; with inhibitor at 4 μg/mL) | MIC of cefdinir (CDR) (E. coli SI-NO36; with inhibitor at 4 μg/mL) | MIC of ceftibuten (CTB) (E. coli SI-NO36; with inhibitor at 4 μg/mL) | MIC of cefixime (CFM) (K. oxytoca 176877; with inhibitor at 4 μg/mL) | MIC of cefalexin (LEX) (K. pneumoniae 153239; with inhibitor at 4 μg/mL) | MIC of cefdinir (CDR) (K. pneumoniae 153239; with inhibitor at 4 μg/mL) | MIC of cefixime (CFM) (K. pneumoniae 153239; with inhibitor at 4 μg/mL) | MIC of cefixime (CFM) (K. pneumoniae 304487; with inhibitor at 4 μg/mL) | MIC of cefalexin (LEX) (K. pneumoniae 329633; with inhibitor at 4 μg/mL) | MIC of cefdinir (CDR) (K. pneumoniae 329633; with inhibitor at 4 μg/mL) | MIC of ceftibuten (CTB) (K. pneumoniae 11/23 LF#2; with inhibitor at 4 μg/mL) | MIC of cefixime (CFM) (K. pneumoniae KPN 508; with inhibitor at 4 μg/mL)
0.5 µg/mL: MIC of cefalexin (LEX) (E. coli 1924; with inhibitor at 4 μg/mL) | MIC of cefdinir (CDR) (E. coli 1924; with inhibitor at 4 μg/mL) | MIC of ceftibuten (CTB) (E. coli 1924; with inhibitor at 4 μg/mL) | MIC of cefalexin (LEX) (E. coli 2150; with inhibitor at 4 μg/mL) | MIC of cefdinir (CDR) (E. coli 2150; with inhibitor at 4 μg/mL) | MIC of ceftibuten (CTB) (E. coli 2150; with inhibitor at 4 μg/mL) | MIC of ceftibuten (CTB) (E. coli ESBL 5; with inhibitor at 4 μg/mL) | MIC of cefixime (CFM) (E. coli SI-LP377; with inhibitor at 4 μg/mL) | MIC of cefalexin (LEX) (E. coli SI-M004; with inhibitor at 4 μg/mL) | MIC of cefdinir (CDR) (E. coli SI-M004; with inhibitor at 4 μg/mL) | MIC of ceftibuten (CTB) (E. coli SI-M004; with inhibitor at 4 μg/mL) | MIC of cefixime (CFM) (E. coli SI-NO36; with inhibitor at 4 μg/mL) | MIC of cefalexin (LEX) (E. coli SI-PBLII; with inhibitor at 4 μg/mL) | MIC of cefdinir (CDR) (E. coli SI-PBLII; with inhibitor at 4 μg/mL) | MIC of ceftibuten (CTB) (E. coli SI-PBLII; with inhibitor at 4 μg/mL) | MIC of ceftibuten (CTB) (E. coli SI-V502; with inhibitor at 4 μg/mL) | MIC of cefixime (CFM) (K. pneumoniae 170375; with inhibitor at 4 μg/mL) | MIC of cefalexin (LEX) (K. pneumoniae 304487; with inhibitor at 4 μg/mL) | MIC of cefdinir (CDR) (K. pneumoniae 304487; with inhibitor at 4 μg/mL) | MIC of cefalexin (LEX) (K. pneumoniae 319478; with inhibitor at 4 μg/mL) | MIC of cefdinir (CDR) (K. pneumoniae 319478; with inhibitor at 4 μg/mL) | MIC of cefixime (CFM) (K. pneumoniae 319478; with inhibitor at 4 μg/mL) | MIC of cefalexin (LEX) (K. pneumoniae 11/23 LF#2; with inhibitor at 4 μg/mL) | MIC of cefdinir (CDR) (K. pneumoniae 11/23 LF#2; with inhibitor at 4 μg/mL) | MIC of cefalexin (LEX) (K. pneumoniae ESBL 10; with inhibitor at 4 μg/mL) | MIC of cefdinir (CDR) (K. pneumoniae ESBL 10; with inhibitor at 4 μg/mL)
0.03 µg/mL: MIC of cefixime (CFM) (K. oxytoca 496 #2; with inhibitor at 4 μg/mL) | MIC of cefixime (CFM) (K. pneumoniae 329633; with inhibitor at 4 μg/mL) | MIC of ceftibuten (CTB) (K. pneumoniae 329633; with inhibitor at 4 μg/mL) | MIC of ceftibuten (CTB) (K. pneumoniae ESBL 8 #1; with inhibitor at 4 μg/mL)
0.125 µg/mL: MIC of ceftibuten (CTB) (E. coli SI-LP377; with inhibitor at 4 μg/mL) | MIC of ceftibuten (CTB) (K. oxytoca 176877; with inhibitor at 4 μg/mL) | MIC of ceftibuten (CTB) (K. oxytoca 496 #2; with inhibitor at 4 μg/mL) | MIC of cefalexin (LEX) (K. pneumoniae 3151; with inhibitor at 4 μg/mL) | MIC of cefdinir (CDR) (K. pneumoniae 3151; with inhibitor at 4 μg/mL) | MIC of cefixime (CFM) (K. pneumoniae 3151; with inhibitor at 4 μg/mL) | MIC of ceftibuten (CTB) (K. pneumoniae 304487; with inhibitor at 4 μg/mL) | MIC of cefixime (CFM) (K. pneumoniae ESBL 10; with inhibitor at 4 μg/mL) | MIC of ceftibuten (CTB) (K. pneumoniae ESBL 10; with inhibitor at 4 μg/mL) | MIC of cefalexin (LEX) (K. pneumoniae KP 4; with inhibitor at 4 μg/mL) | MIC of cefdinir (CDR) (K. pneumoniae KP 4; with inhibitor at 4 μg/mL) | MIC of cefixime (CFM) (K. pneumoniae KP 4; with inhibitor at 4 μg/mL) | MIC of cefalexin (LEX) (K. pneumoniae KPN 508; with inhibitor at 4 μg/mL) | MIC of cefdinir (CDR) (K. pneumoniae KPN 508; with inhibitor at 4 μg/mL)
0.06 µg/mL: MIC of cefalexin (LEX) (K. oxytoca 496 #2; with inhibitor at 4 μg/mL) | MIC of cefdinir (CDR) (K. oxytoca 496 #2; with inhibitor at 4 μg/mL) | MIC of ceftibuten (CTB) (K. pneumoniae 3151; with inhibitor at 4 μg/mL) | MIC of ceftibuten (CTB) (K. pneumoniae 153239; with inhibitor at 4 μg/mL) | MIC of ceftibuten (CTB) (K. pneumoniae 170375; with inhibitor at 4 μg/mL) | MIC of ceftibuten (CTB) (K. pneumoniae 319478; with inhibitor at 4 μg/mL) | MIC of cefalexin (LEX) (K. pneumoniae ESBL 8 #1; with inhibitor at 4 μg/mL) | MIC of cefdinir (CDR) (K. pneumoniae ESBL 8 #1; with inhibitor at 4 μg/mL) | MIC of cefixime (CFM) (K. pneumoniae ESBL 8 #1; with inhibitor at 4 μg/mL) | MIC of ceftibuten (CTB) (K. pneumoniae KPN 508; with inhibitor at 4 μg/mL)
1 µg/mL: MIC of cefixime (CFM) (E. coli 1924; with inhibitor at 4 μg/mL) | MIC of cefixime (CFM) (E. coli 2150; with inhibitor at 4 μg/mL) | MIC of cefalexin (LEX) (E. coli ESBL 5; with inhibitor at 4 μg/mL) | MIC of cefdinir (CDR) (E. coli ESBL 5; with inhibitor at 4 μg/mL) | MIC of cefixime (CFM) (E. coli ESBL 5; with inhibitor at 4 μg/mL) | MIC of cefalexin (LEX) (E. coli SI-LP377; with inhibitor at 4 μg/mL) | MIC of cefdinir (CDR) (E. coli SI-LP377; with inhibitor at 4 μg/mL) | MIC of cefixime (CFM) (E. coli SI-M004; with inhibitor at 4 μg/mL) | MIC of cefixime (CFM) (E. coli SI-PBLII; with inhibitor at 4 μg/mL) | MIC of cefalexin (LEX) (E. coli SI-V502; with inhibitor at 4 μg/mL) | MIC of cefdinir (CDR) (E. coli SI-V502; with inhibitor at 4 μg/mL) | MIC of cefixime (CFM) (E. coli SI-V502; with inhibitor at 4 μg/mL) | MIC of cefalexin (LEX) (K. pneumoniae 170375; with inhibitor at 4 μg/mL) | MIC of cefdinir (CDR) (K. pneumoniae 170375; with inhibitor at 4 μg/mL)
16 µg/mL: MIC of cefalexin (LEX) (E. coli BAS 1; with inhibitor at 4 μg/mL) | MIC of cefdinir (CDR) (E. coli BAS 1; with inhibitor at 4 μg/mL)
